From ChEMBL document CHEMBL1649085

Assays:
Type in all cases: ADME, organism-based
Plasma = test: Drug uptake in rat plasma at 10 mg/kg, po; design: dose 10 mg/kg, route oral; details: in vivo
[1] = Oral bioavailability in rat at 10 mg/kg, po; details: in vivo
[2] = AUC (0 to time) in rat at 10 mg/kg, po; design: dose 10 mg/kg, route oral; details: plasma
[3] = Tmax in rat at 10 mg/kg, po; design: dose 10 mg/kg, route oral; details: in vivo
[4] = Cmax in rat at 10 mg/kg, po; design: dose 10 mg/kg, route oral; details: in vivo
[5] = Ratio of drug level in brain to plasma in rat at 10 mg/kg, po; design: dose 10 mg/kg, route oral
Brain = test: Drug uptake in rat brain at 10 mg/kg, po; design: dose 10 mg/kg, route oral; details: in vivo, read-out: Drug uptake

Structure (SMILES)	concentration (Plasma)	bioavailability [1]	AUC(0-t) [2]	Tmax [3]	Cmax [4]	BPR [5]	concentration (Brain)
Cc1c(OCc2cccc(-c3ccc(C(=O)O)cc3)c2)cc2c(c1C)C(=O)C(C1CCCC1)C2 (stereo not drawn)	0.027 µM	33%	0.281 µM·h	2 h	0.097 µM	–	–
O=C(O)c1cc(-c2cccc(COc3ccc4c(=O)n(C5CCCC5)sc4c3)c2)ccc1Cl	1 µM	–	43.3 µM·h	1.83 h	4.1 µM	4.8	4.8 µM
O=C(O)c1cc(-c2cccc(COc3ccc4c(c3)CN(C3CCCC3)C4=O)c2)ccc1Cl	12.3 µM	40%	106 µM·h	1.33 h	14.4 µM	0.3	3.8 µM
